In ChEMBL document CHEMBL1135954, “Opioid activity of 4-imidazolidinone positional analogues of Leu-Enkephalin” (Bioorg Med Chem Lett, 2002):
Peptide text beside a SMILES is read from it. * marks the point of attachment. X1 = CC(C)C[C@H]1C(=O)NCN1*

What was measured:
[1] = target: Kappa-type opioid receptor (Rattus norvegicus, UniProt P34975); assay: Binding affinity towards Opioid receptor kappa 1 was determined using U69,593 as the radioligand.
[2] = target: Mu-type opioid receptor (Rattus norvegicus, UniProt P33535)
Chain of Mu-type opioid receptor (P33535 whole entry): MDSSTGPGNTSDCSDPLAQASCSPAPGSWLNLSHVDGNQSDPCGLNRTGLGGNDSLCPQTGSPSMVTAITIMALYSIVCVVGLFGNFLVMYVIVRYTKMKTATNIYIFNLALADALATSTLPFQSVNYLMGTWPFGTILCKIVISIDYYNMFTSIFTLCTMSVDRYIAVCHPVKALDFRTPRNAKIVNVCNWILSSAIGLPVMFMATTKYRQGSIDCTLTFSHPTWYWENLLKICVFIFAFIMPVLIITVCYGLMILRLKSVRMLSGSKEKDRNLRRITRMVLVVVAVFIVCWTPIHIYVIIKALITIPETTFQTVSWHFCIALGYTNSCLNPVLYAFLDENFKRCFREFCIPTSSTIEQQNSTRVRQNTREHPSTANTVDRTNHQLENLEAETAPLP

Chain of Kappa-type opioid receptor (P34975 whole entry): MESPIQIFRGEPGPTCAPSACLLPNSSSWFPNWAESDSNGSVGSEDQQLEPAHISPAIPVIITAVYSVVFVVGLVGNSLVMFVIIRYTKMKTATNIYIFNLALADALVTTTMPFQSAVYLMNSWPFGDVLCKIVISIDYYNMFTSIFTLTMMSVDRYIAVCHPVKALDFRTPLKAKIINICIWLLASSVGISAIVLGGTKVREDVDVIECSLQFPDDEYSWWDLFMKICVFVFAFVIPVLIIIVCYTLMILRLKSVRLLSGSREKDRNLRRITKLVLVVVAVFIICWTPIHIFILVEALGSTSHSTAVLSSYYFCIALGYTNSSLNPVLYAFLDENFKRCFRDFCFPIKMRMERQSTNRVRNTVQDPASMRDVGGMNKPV

Structure (SMILES)	Ki [1]	Ki [2]
CC(C)C[C@@H](C(N)=O)N1CN(C(=O)CNC(=O)CNC(=O)[C@@H](N)Cc2ccc(O)cc2)[C@@H](Cc2ccccc2)C1=O	> 10 µM	2.56 µM
CNC(=O)[C@H](CC(C)C)N(C)C(=O)[C@H](Cc1ccccc1)NC(=O)CNC(=O)CNC(=O)[C@@H](N)Cc1ccc(O)cc1	1.69 µM	0.028 µM
CC(C)C[C@H](NC(=O)[C@H](Cc1ccccc1)NC(=O)CNC(=O)CN1CN[C@@H](Cc2ccc(O)cc2)C1=O)C(N)=O	> 10 µM	0.547 µM
CC(C)C[C@H](NC(=O)[C@H](Cc1ccccc1)N1CN(C(=O)CNC(=O)[C@@H](N)Cc2ccc(O)cc2)CC1=O)C(N)=O	> 10 µM	0.236 µM
CC(C)C[C@H]1C(=O)NCN1C(=O)[C@H](Cc1ccccc1)NC(=O)CNC(=O)CNC(=O)[C@@H](N)Cc1ccc(O)cc1 (H-YGGF-X1)	2.89 µM	0.004 µM
CC(C)C[C@@H](C(N)=O)N(C)C(=O)[C@H](Cc1ccccc1)NC(=O)CNC(=O)CNC(=O)[C@@H](N)Cc1ccc(O)cc1	2.23 µM	0.046 µM
CNC(=O)[C@H](CC(C)C)NC(=O)[C@H](Cc1ccccc1)NC(=O)CNC(=O)CNC(=O)[C@@H](N)Cc1ccc(O)cc1	1.37 µM	0.145 µM
CC(C)C[C@H](NC(=O)[C@H](Cc1ccccc1)NC(=O)CN1CN(C(=O)[C@@H](N)Cc2ccc(O)cc2)CC1=O)C(N)=O	> 10 µM	0.092 µM
